Experimental data taken from BindingDB's records for doi:10.1111/j.1747-0285.2008.00638.x (Mcgill University/Royal Victoria Hospital, 2008).

target: Epidermal growth factor receptor (Homo sapiens, UniProt P00533); assay: Kinase Enzyme Assay; details: 37 °C
From the text: EGFR kinase assay was perform using Nunc MaxiSorp purchased from Nalge Nunc Interantional.

Chain of Epidermal growth factor receptor (P00533 whole entry): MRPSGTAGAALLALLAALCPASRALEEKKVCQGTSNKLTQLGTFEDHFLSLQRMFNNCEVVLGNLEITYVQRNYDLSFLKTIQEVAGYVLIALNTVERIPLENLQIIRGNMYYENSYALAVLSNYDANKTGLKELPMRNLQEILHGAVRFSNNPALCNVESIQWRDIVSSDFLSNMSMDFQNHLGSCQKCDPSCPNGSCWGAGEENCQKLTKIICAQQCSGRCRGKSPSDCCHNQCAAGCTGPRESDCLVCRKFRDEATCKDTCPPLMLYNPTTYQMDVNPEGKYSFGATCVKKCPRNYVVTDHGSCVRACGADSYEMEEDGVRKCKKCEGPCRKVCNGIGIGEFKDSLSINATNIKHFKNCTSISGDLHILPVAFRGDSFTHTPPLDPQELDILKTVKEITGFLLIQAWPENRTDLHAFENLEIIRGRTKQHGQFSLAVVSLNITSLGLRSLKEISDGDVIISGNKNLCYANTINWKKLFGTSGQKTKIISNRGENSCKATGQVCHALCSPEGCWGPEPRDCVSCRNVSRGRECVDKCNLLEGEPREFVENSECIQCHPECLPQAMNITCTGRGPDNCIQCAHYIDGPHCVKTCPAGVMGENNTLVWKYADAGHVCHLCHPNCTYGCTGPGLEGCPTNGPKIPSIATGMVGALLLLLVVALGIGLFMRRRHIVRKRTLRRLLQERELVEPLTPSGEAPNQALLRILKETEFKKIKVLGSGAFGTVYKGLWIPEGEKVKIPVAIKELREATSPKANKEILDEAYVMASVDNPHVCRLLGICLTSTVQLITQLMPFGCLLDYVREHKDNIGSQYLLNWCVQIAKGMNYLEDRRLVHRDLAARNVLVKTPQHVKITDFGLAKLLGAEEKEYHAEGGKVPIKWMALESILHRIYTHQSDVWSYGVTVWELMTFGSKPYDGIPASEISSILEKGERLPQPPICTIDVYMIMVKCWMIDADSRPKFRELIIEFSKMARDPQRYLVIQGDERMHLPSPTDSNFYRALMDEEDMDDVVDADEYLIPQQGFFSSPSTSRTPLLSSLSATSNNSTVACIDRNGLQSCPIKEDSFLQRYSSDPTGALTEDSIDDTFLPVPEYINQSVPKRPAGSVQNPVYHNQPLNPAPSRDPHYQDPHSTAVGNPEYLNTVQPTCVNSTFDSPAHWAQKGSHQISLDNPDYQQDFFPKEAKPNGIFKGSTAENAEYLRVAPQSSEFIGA

| Compound | IC50 [nM] |
| --- | --- |
| Cc1cccc(Nc2ncnc3ccc(/N=N/N(C)CCN(CCN4CCOCC4)CCN(C)/N=N/c4ccc5ncnc(Nc6cccc(C)c6)c5c4)cc23)c1 [Bis-quinazolinotriazene, 5a] | 950 |
| CN(CCN(CCN1CCOCC1)CCN(C)/N=N/c1ccc2ncnc(Nc3cccc(Br)c3)c2c1)/N=N/c1ccc2ncnc(Nc3cccc(Br)c3)c2c1 [Bis-quinazolinotriazene, 5b] | 120 |
| CN(CCN(CCN1CCOCC1)CCN(C)/N=N/c1ccc2ncnc(Nc3cccc(Cl)c3)c2c1)/N=N/c1ccc2ncnc(Nc3cccc(Cl)c3)c2c1 [Bis-quinazolinotriazene, 5c] | 150 |
